Consider one compound from US20120071431A1, “Platycodin Radix Extracts, and Their Use in Treating Disease Conditions Associated with Angiogenesis” (priority 2010, published 2012).

Molecules are shown by their SMILES. Entries after “also recorded” stand apart in the source; their conditions may differ.

The target in experiment [1] is T1, pancreatic lipase (Homo sapiens, UniProt P16233).
T1 sequence (P16233 17-465): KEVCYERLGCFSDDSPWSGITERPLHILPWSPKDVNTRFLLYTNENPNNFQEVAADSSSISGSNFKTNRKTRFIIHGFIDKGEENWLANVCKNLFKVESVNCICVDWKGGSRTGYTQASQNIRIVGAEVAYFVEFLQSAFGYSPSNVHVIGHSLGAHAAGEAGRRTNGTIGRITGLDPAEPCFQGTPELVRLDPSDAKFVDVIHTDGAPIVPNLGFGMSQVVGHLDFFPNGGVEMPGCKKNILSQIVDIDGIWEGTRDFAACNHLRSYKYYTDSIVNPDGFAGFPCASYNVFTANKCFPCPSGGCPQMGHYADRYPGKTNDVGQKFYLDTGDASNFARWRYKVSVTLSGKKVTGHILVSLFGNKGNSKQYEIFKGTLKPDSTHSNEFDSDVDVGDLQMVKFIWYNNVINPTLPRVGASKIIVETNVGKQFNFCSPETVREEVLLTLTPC
As to conditions: cited from earlier work.

Experiment [2] concerns angiogenesis in human fat tissue. Description: human fat tissue angiogenesis assay (substance added to the media). The format is cell-based. The procedure: The above extracts of platycodin, both PS and PD, were assayed for antiangiogenic activity using the human fat angiogenesis assay of Greenway et al. (2007).
Study 1: An aqueous extract of Platycodi radix saponins at 1% w/v was tested in our human adipose tissue assay. Briefly, subcutaneous adipose tissue was removed from patients undergoing cosmetic surgical procedures. The fat was placed directly into sterile assay media, transported directly to the laboratory from the surgery suite in the sterile container and processed under a laminar flow hood. The tissue was cut into fragments approximately 1 mm thick and 2 mm in diameter. These fragments were placed in 96-well plates containing a 4 μL human thrombin solution (0.05 IU in 4 μL per well) and covered with 100 μL clotting media (3 mg/mL fibrinogen; Sigma Chemical Co., St Louis, Mo., USA), 0.5% ε-amino caproic acid (Sigma Chemical Co.) in angiogenesis media containing 100 U/mL penicillin, 100 U/mL streptomycin sulfate and 2.5 μg/mL amphotericin β in Medium 199 (Gibco BRL, Gaithersburg, Md., USA). The mixture was allowed to clot by incubation in 6% CO2 at 37° C. in a humidified incubator. After the media had gelled overnight, the fat-containing clot was supplemented with 100 μL angiogenesis media containing 20% fetal bovine serum (Gibco BRL). The total volume of each well was 200 μL. There were 30 replicates for the 1% w/v Platycodi radix saponins and the media control. The angiogenesis media were replaced every 48 h and appropriate concentrations of fresh Platycodi radix saponins or media control were added. Wells were evaluated for the angiogenic response as described by Greenway et al. (2007). An observer unbiased to the treatment protocols evaluated the angiogenic response using a semi-quantitative visual rating scale. Briefly, the tissue was viewed under an inverted microscope, visually divided into four quadrants and each quadrant was given a numeric score from 0 to 4 based on the neovessels' length, density, and percentage of the quadrants' circumference involved with the angiogenic response. Numeric results from the four quadrants were summed and expressed as an angiogenic index ranging from 0 (no neovessels apparent in any quadrant) to 16 (highly vascularized in all four quadrants). The extract of Platycodi radix saponins at 1% w/v was tested, followed by Platycodin D, and finally by the Platycodi radix saponins standardized to the Platycodin D content.

In the case of `C[C@@H]1O[C@@H](O[C@H]2[C@H](OC(=O)[C@]34CCC(C)(C)C[C@H]3C3=CC[C@@H]5[C@@]6(C)C[C@H](O)[C@H](O[C@@H]7O[C@H](CO)[C@@H](O)[C@H](O)[C@H]7O)C(CO)(CO)[C@@H]6CC[C@@]5(C)[C@]3(C)C[C@H]4O)OC[C@H](O)[C@@H]2O)[C@H](O)[C@H](O)[C@H]1O[C@@H]1OC[C@@H](O)[C@H](O[C@@H]2OC[C@](O)(CO)[C@H]2O)[C@H]1O` [PD, platycodin D], the “inhibition of pancreatic lipase” value in experiment [1] is recorded as “inhibit pancreatic lipase”. In experiment [2] (10^-4 M (concentration of platycodin D) and higher), the “inhibition of angiogenesis (angiogenic index)” value is on record as “complete inhibition of angiogenesis”. Besides, the inhibition of angiogenesis result in experiment [2] (10^-5 M, difference not statistically significant) is “partial inhibition”; in experiment [2] (concentration not given), “inhibited angiogenesis; also recorded: inhibitors of angiogenesis”; in experiment [2] (concentrations above 10^-4 M), “totally inhibited angiogenesis”; in experiment [2] (concentrations below 10^-4 M), “did not inhibit angiogenesis”.
